# Measured values from patent US6750220B2, “Amine salt of an integrin receptor antagonist” (Merck & Co., Inc., priority 2001, dated 2004).
# Structures can show the parent of a compound that is named as a salt.
# Test: solubility in water
# Format: physicochemical
# Conditions: compared with the parent zwitterionic compound of structural formula IV
smiles,measurement,value
"O=C(O)CC(CCCCCCc1ccc2c(n1)NCCC2)c1cncnc1 (stereo not shown) [TRIS salt, tris(hydroxymethyl)aminomethyl (“TRIS”) salt of 3-(pyrimidin-5-yl)-9-(5,6,7,8-tetrahydro-[1,8]-naphthyridin-2-yl)-nonanoic acid]",solubility in water,greater solubility in water than the parent zwitterionic compound
